In ChEMBL document CHEMBL1201862, “PubChem BioAssay data set” (2004):
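96-well plates; 48 h exposure; 5 concentrations. Endpoints by linear interpolation between flanking doses. Not reached: highest tested concentration assigned. GI50: concentration for 50% inhibition of growth.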 Activity calls are given as the source filed them. Cut-off read from the data, not from the text of the source: active = GI50 up to about 1.1 µM and inactive = higher.

Columns and labels:
Test in all cases: NCI-60 cell line screen, 48 h
[1] = tested on: NCI-H522
[2] = tested on: DU-145
[3] = tested on: OVCAR-4
[4] = tested on: SF-268
[5] = tested on: SR
[6] = tested on: M14
[7] = tested on: A498
[8] = tested on: OVCAR-5
[9] = tested on: HOP-62
[10] = tested on: Malme-3M
[11] = tested on: U-251
[12] = tested on: MOLT-4
[13] = tested on: HT-29
[14] = tested on: SW-620
[15] = tested on: MDA-MB-435
[16] = tested on: MDA-MB-231
[17] = tested on: SK-MEL-28
[18] = tested on: IGROV-1
[19] = tested on: 786-0
[20] = tested on: UACC-62
[21] = tested on: ACHN
[22] = tested on: NCI-H460
[23] = tested on: SN12C
[24] = tested on: HCC 2998
[25] = tested on: SF-295
[26] = tested on: K562
[27] = tested on: HL-60
[28] = tested on: LOX IMVI
[29] = tested on: BT-549
[30] = tested on: RXF 393
[31] = tested on: SK-MEL-2
[32] = tested on: PC-3
[33] = tested on: EKVX
[34] = tested on: NCI-H23
[35] = tested on: A549
[36] = tested on: COLO 205
[37] = tested on: UACC-257
[38] = tested on: MDA-N
[39] = tested on: Hs-578T
[40] = tested on: HCT-116
[41] = tested on: TK-10
[42] = tested on: SNB-75
[43] = tested on: NCI-H226
[44] = tested on: CCRF-CEM
[45] = tested on: CAKI-1
[46] = tested on: SNB-19
[47] = tested on: HOP-92
[48] = tested on: HCT-15
[49] = tested on: T47D
[50] = tested on: SF-539
[51] = tested on: RPMI-8226
[52] = tested on: OVCAR-3
[53] = tested on: OVCAR-8
[54] = tested on: NCI/ADR-RES
[55] = tested on: MCF7
[56] = tested on: SK-MEL-5

Measured: GI50

O=c1oc2c([N+](=O)[O-])cc([N+](=O)[O-])cc2c2ccccc12
inactive: [1] > 100 µM | [2] > 100 µM | [3] > 100 µM | [4] > 100 µM | [5] > 100 µM | [6] > 100 µM | [7] > 100 µM | [8] > 100 µM | [9] > 100 µM | [10] > 100 µM | [11] > 100 µM | [12] > 100 µM | [13] > 100 µM | [14] > 100 µM | [15] > 100 µM | [16] > 100 µM | [17] > 100 µM | [18] > 100 µM | [19] > 100 µM | [20] > 100 µM | [21] > 100 µM | [22] > 100 µM | [23] > 100 µM | [24] > 100 µM | [25] > 100 µM | [26] > 100 µM | [27] > 100 µM | [28] > 100 µM | [29] 59.6 µM | [30] > 100 µM | [31] > 100 µM | [32] > 100 µM | [33] > 100 µM | [34] > 100 µM | [35] > 100 µM | [36] > 100 µM | [37] > 100 µM | [38] > 100 µM | [39] > 100 µM | [40] > 100 µM | [41] > 100 µM | [42] > 100 µM | [43] > 100 µM | [44] > 100 µM | [45] > 100 µM | [46] > 100 µM | [47] > 100 µM | [49] > 100 µM | [50] > 100 µM | [51] > 100 µM | [52] > 100 µM | [53] > 100 µM | [54] > 100 µM | [55] > 100 µM | [56] > 100 µM
> 100 µM: [48]
